Source: PMC6017357, “In Vitro Inhibitory Effects of Synthetic Cannabinoid EAM-2201 on Cytochrome P450 and UDP-Glucuronosyltransferase Enzyme Activities in Human Liver Microsomes” (Molecules : A Journal of Synthetic Chemistry and Natural …, 2018)

Target: T1, UGT2B7 (Homo sapiens, UniProt P16662)
T1 construct: ultrapooled human liver microsomes (0.2 mg/mL), 5 mM UDPGA; from tissue; host or cells: ultrapooled human liver microsomes
T1 sequence (P16662 24-529): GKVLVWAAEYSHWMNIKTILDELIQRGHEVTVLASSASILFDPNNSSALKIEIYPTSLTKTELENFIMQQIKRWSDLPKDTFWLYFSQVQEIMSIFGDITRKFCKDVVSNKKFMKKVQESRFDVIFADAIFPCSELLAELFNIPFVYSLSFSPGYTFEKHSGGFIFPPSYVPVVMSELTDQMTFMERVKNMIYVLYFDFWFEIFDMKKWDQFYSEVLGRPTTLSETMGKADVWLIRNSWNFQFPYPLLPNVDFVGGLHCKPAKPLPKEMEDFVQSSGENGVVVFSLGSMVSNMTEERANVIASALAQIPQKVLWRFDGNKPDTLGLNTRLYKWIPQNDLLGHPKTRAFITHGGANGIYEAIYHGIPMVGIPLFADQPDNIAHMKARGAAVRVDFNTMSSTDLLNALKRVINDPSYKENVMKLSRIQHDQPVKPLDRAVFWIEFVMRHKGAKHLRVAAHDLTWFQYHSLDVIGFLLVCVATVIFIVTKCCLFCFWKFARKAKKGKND
Experiment: UGT2B7-catalyzed naloxone 3-β-D-glucuronidation in human liver microsomes
Type: in vitro ADME
Settings: at 50 µM
Experimental: The inhibitory effects of EAM-2201 on UGT1A1, UGT1A3, UGT1A4, UGT1A6, UGT1A9 and UGT2B7 were evaluated using LC-MS/MS and the cocktail of UGT substrates as previously described. Each incubation mixture was prepared in a final volume of 100 µL as follows: ultrapooled human liver microsomes (0.2 mg/mL), 5 mM UDPGA, 10 mM magnesium chloride, alamethicin (25 µg/mL), 50 mM Tris buffer (pH 7.4), various concentrations of EAM-2201 in DMSO (final concentrations of 1–50 µM, 0.5% DMSO) and the UGT enzyme-specific substrates of two cocktail sets (set A: 0.5 µM SN-38, 2 µM chenodeoxycholic acid and 0.5 µM trifluoperazine; set B: 1 µM N-acetylserotonin, 0.2 µM mycophenolic acid and 1 µM naloxone, acetonitrile content, 0.5%). […] Supernatant from sets A and B (50 µL of each) was mixed and aliquots (5 µL) were analyzed by LC-MS/MS. […]
The metabolites formed from the six UGT cocktail substrates were simultaneously measured using LC-MS/MS [41]. […] Each metabolite was quantified via SRM in the negative ion mode: chenodeoxycholic acid 24-acyl-β-glucuronide, 567.2 > 391.0; mycophenolic acid glucuronide, 495.2 > 318.9; and propofol glucuronide (IS), 353.3 > 177.1; and in the positive ion mode: SN-38 glucuronide, 569.0 > 393.0; trifluoperazine glucuronide, 584.2 > 408.1; N-acetylserotonin-β-D-glucuronide, 395.2 > 219.0; naloxone 3-β-D-glucuronide, 504.0 > 310.0; and meloxicam (IS), 352.0 > 115.1. […]

SMILES: CCc1ccc(C(=O)c2cn(CCCCCF)c3ccccc23)c2ccccc12 [EAM-2201, (4-ethyl-1-naphthalenyl)[1-(5-fluoropentyl)-1H-indol-3-yl]-methanone]
- inhibition of UGT2B7-catalyzed naloxone 3-β-D-glucuronidation: negligibly inhibited
